Measurements as given in patent US20250290117A1, “MOLECULAR PHENOTYPIC ANTIMICROBIAL SUSCEPTIBILITY TESTING” (priority 2024, published 2025).

How the values were obtained:
[1] = test system: Escherichia coli; assay: Molecular phenotypic antimicrobial susceptibility test (extraction or DNA purification prior to PCR); type: cell-based
Procedure, shortened: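 Semi-quantitative PCR measures growth after exposure, so sensitivity means prevented growth and resistance means allowed growth. Exposure lasts 12-16 hours at single or multiple breakpoint concentrations in Mueller Hinton Broth, with the inoculum at 0.5 McFarland.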

[2] = test system: Escherichia coli; assay: Traditional culture-based antimicrobial susceptibility test; type: cell-based
Procedure, shortened: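 E. coli isolates underwent conventional growth, isolation and exposure to antimicrobials, giving a culture-based susceptibility call for each agent.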

[3] = test system: M. morganii; assay: Molecular phenotypic antimicrobial susceptibility test, specimen with two detected pathogens incubated together without isolation; type: cell-based, Morganella morganii; conditions: M. morganii in specimen with two detected pathogens (E. coli and M. morganii) incubated together
Procedure, shortened: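 Specimen in boric acid; pathogens identified by PCR while a parallel aliquot grew 4-6 h in liquid medium. With >10,000 cells/mL detected, culture diluted to 0.5 McFarland and exposed to antimicrobials in broth (e.g. Mueller Hinton) at breakpoint concentrations; both pathogens incubated together unisolated, growth read by molecular methods against medium-only wells.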

CO[C@@]1(NC(=O)Cc2cccs2)C(=O)N2C(C(=O)O)=C(COC(N)=O)CS[C@@H]21 [Cefoxitin]
Ct at Sensitive Breakpoint ([1]; E. coli isolate 4, Ct at control (average) 17.5733): 24.09 | Molecular Antimicrobial Susceptibility Result ([1]; E. coli isolate 4, at sensitive breakpoint): Sensitive (Antimicrobial wells with pathogen load detected below the control wells (typically >2 cycle thresholds later) may be reported as Sensitive) | Ct at Sensitive Breakpoint ([1]; E. coli isolate 5, Ct at control (average) 21.0933): 24.72 | Molecular Antimicrobial Susceptibility Result ([1]; E. coli isolate 5, at sensitive breakpoint): Sensitive (Antimicrobial wells with pathogen load detected below the control wells (typically >2 cycle thresholds later) may be reported as Sensitive) | Traditional Culture Result ([2]; E. coli isolate 4 (Table 3)): Sensitive | Traditional Culture Result ([2]; E. coli isolate 5 (Table 3)): Sensitive | Ct of Sensitive Breakpoint ([3]; Ct of controls (average) 19.99): 23.01 | Molecular Antimicrobial Susceptibility Result ([3]; at sensitive breakpoint): Sensitive (Antimicrobial wells with pathogen load detected below the control wells (typically >2 cycle thresholds later) may be reported as Sensitive)
